Measured values as given in patent publication US12685740B2, “Compositions for the elimination of senescent cells” (Universität für Bodenkultur Wien, priority 2018, dated 2026).
Read-outs that look alike come from different tables or passages of the source.

Assays:
[1] = system: Doxorubicin-induced premature senescent HDF76, HDF161, HDF164; experiment: Alamar blue viability assay, SIPS vs quiescent HDF, combined data of three donors (FIG. 9, 11); assay type: cell-based, human
Experimental: (§1) Cells were seeded at a cell density of 2,800 cells/cm^2 one day prior to the treatment. The cells were treated nine times over a period of 11 days with 60-80 μM H2O2 supplemented to the media for one hour followed by a media change. Alternatively, depending on cell type cells were seeded at a cell density of 3,500-7,000 cells/cm^2 one day prior to the treatment and SIPS was induced with 100-200 nM doxorubicin (D1515, Sigma-Aldrich) supplemented to the medium for 6 days. Induction of senescence was verified by SA-β-gal staining, p21 expression, and absence of BrdU incorporation. AnnexinV/PI staining was performed to assure that the treatment was non-lethal and SIPS HDFs were cultured and monitored for over 50 days to assure that the induced growth arrest was permanent (Terlecki-Zaniewicz et al. 2018).
(§2) Alamar blue (DAL1100, Thermo Fisher Scientific) assay was performed according to the manufacturer's instructions. Cells were treated with the respective substances for 9 days with a media change on day 0, 3 and 6. The control was treated with the respective concentration of the solvent (DMSO).
(§3) Premature senescence was induced in adult and foreskin HDFs with doxorubicin, which was supplemented to the growth media for 6 days. Treatment with senolytic substances started 8 days after completion of the SIPS treatment to allow for cells to enter senescence. Quiescent cells were used as control. Growth media was supplemented with senolytic substances for 9 days with media changes every 3 days. All samples, including the control, contained the same concentration of solvent (DMSO). Subsequently, the viability was assessed using an alamar blue assay (Thermo Fisher Scientific).

[2] = system: Doxorubicin-induced premature senescent RPTEC1; experiment: Alamar blue viability assay, doxorubicin-induced SIPS vs quiescent RPTEC1 (FIG. 13); assay type: cell-based, human
Experimental: as §1, §2

[3] = system: Doxorubicin-induced premature senescent HLF102; experiment: Alamar blue viability assay, doxorubicin-induced SIPS vs quiescent HLF102 (FIG. 12); assay type: cell-based, human
Experimental: as §1, §2

[4] = system: doxorubicin-induced premature senescent HUVECs; experiment: Alamar blue viability assay, doxorubicin-induced SIPS vs quiescent HUVECs (FIG. 5); assay type: cell-based, human; conditions: single treatment, 9 days, SIPS vs quiescent (Q) HUVECs
Experimental: as §1, §2
Premature senescence was induced in HUVECs with doxorubicin (Sigma-Aldrich), which was supplemented to the growth media for 6 days. Treatment with senolytic substances started 8 days after completion of the SIPS treatment to allow for cells to enter senescence. Quiescent cells were used as control. Growth media was supplemented with senolytic substances for 9 days with media changes every 3 days. All samples, including the control, contained the same concentration of solvent (DMSO). Subsequently, the viability was assessed using an alamar blue assay (Thermo Fisher Scientific) (FIG. 5).

[5] = system: H2O2-induced premature senescent human dermal fibroblasts; experiment: Alamar blue viability assay, H2O2-induced premature senescent (SIPS) vs quiescent HDFs (FIG. 4); assay type: cell-based; conditions: single treatment, 9 days, SIPS vs quiescent (Q) HDFs
Experimental: as §1, with “([…],” for “(D1515,”, “([…]” for “(Terlecki-Zaniewicz”, “2018). Alamar blue (DAL1100, Thermo Fisher Scientific) assay was performed according to the manufacturer's instructions. […] The control was treated with the respective concentration of the solvent (DMSO). Premature senescence was induced in HDF with chronic oxidative stress treatment (9 doses of H2O2 treatment over the period of 11 days). Quiescent cells were used as control. […] Subsequently, the viability was assessed using an alamar blue assay (Thermo Fisher Scientific).” for “2018).”

[6] = system: Doxorubicin-induced premature senescent HDF164; experiment: Alamar blue viability assay, doxorubicin-induced SIPS vs quiescent HDF164 (FIG. 7, 14); assay type: cell-based, human; conditions: for EC50: read-out: EC50 for senescent cells
Experimental: as §1, §2, §3
Premature senescence was induced in adult HDFs with doxorubicin, which was supplemented to the growth media for 6 days. Treatment with senolytic substances started 8 days after completion of the SIPS treatment to allow cells to enter senescence. Quiescent cells were used as control. Growth media was supplemented with senolytic substances for 9 days with media changes every 3 days. All samples, including the control, contained the same concentration of solvent (DMSO). Subsequently, the viability was assessed using an alamar blue assay (Thermo Fisher Scientific).

[7] = system: intracellular levels of AA of HDF161; experiment: Quantification of intracellular arachidonic acid by ELISA (FIG. 17b); assay type: cell-based, human; conditions: 10 μM MK886 together with 100 μM Diclofenac for 6 hrs, vs solvent (1% DMSO)
Experimental: The cells were harvested by trypsinization, centrifuged at 1000 g and 4° C. for 5 min and washed three times with cold PBS. The Cells were counted using a Vi-CELL XR (Beckman Coulter) automated cell counter and the cell pellets were resuspended in cold PBS to obtain a cell suspension with 2000-5000 cells/μl. Subsequently the cells were lysed by 30 cycles of sonication (30 s on, 30 s off) in a Bioruptor (Diagenode). Cell debris was removed by 10 min centrifugation at 1500 g and 4° C. and the supernatant was analyzed with an ELISA assay (Novus Biologicals; NBP2-66372) according to the manufacturer's instructions.
In order to verify, whether novel senolytics can be identified in an efficient screen measuring the intracellular levels of AA, an ELISA test (Novus Biologicals; NBP2-66372) was used according to the manufacturer's instructions to first, confirm that novel senolytics identified in the examples above indeed lead to an accumulation of intracellular AA, and second, to screen for compounds, which cause an increase of intracellular levels of AA in senescent HDFs.

[8] = system: Doxorubicin-induced premature senescent HDF161; experiment: Alamar blue viability assay, doxorubicin-induced SIPS vs quiescent HDF161 (FIG. 6); assay type: cell-based, human; conditions: for EC50: read-out: EC50 for senescent cells
Experimental: as §1, §2, §3

[9] = system: Doxorubicin-induced premature senescent fHDF166; experiment: Alamar blue viability assay, doxorubicin-induced SIPS vs quiescent fHDF166 (FIG. 8, 15); assay type: cell-based, human; conditions: for EC50: read-out: EC50 for senescent cells
Experimental: as §1, §2, §3
In order to test this, premature senescence was induced in foreskin HDFs with doxorubicin, which was supplemented to the growth media for 6 days. Treatment with senolytic substances started 8 days after completion of the SIPS treatment to allow for cells to enter senescence. Quiescent cells were used as control. Growth media was supplemented with senolytic substances for 9 days with media changes every 3 days. All samples, including the control, contained the same concentration of solvent (DMSO). Subsequently, the viability was assessed using an alamar blue assay (Thermo Fisher Scientific).

[10] = system: Doxorubicin-induced premature senescent HDF76, HDF85, HDF161; experiment: Rescue of senolytic effect by manipulating cPLA2 activity, viability after 72 hours (FIG. 18); assay type: cell-based
Experimental: Doxorubicin-induced premature senescent HDF76, HDF85, HDF161 (SIPS) and quiescent control cells (Q) were either treated for 72 hours with the combination of 1 μM ACSL4 inhibitor Triacsin C (TrC) and 1 μM ALOXS inhibitor MK886 alone or in addition with either 2.5 μM A23187 (cPLA2 activator) or 12.5 μM ASB14780 (cPLA2 inhibitor).
This was also the case, when the enzymatic activity of the cytosolic phospholipase A2 was reduced by the small molecule inhibitor ASB14780 (Sigma Aldrich, SML1913).

cyclooxygenase = conditions: Wang et al. 2000; read-out: IC50 of inhibiting cyclooxygenase activity; cited from earlier work
COX-1 = COX-1 (Homo sapiens, UniProt P23219); conditions: cited from earlier work
[11] = single treatment (DQ: 15 μM Quercetin with increasing Dasatinib)
[12] = MK886 combined with 50 μM Diclofenac
[13] = increasing MK886 combined with 50 μM Diclofenac
[14] = increasing MK886 combined with 0.4 mM ASA
[15] = 12.5 μM ASB14780 added to 1 μM TrC and 1 μM MK886, 72 hours

COX-1, sequence (P23219 24-599): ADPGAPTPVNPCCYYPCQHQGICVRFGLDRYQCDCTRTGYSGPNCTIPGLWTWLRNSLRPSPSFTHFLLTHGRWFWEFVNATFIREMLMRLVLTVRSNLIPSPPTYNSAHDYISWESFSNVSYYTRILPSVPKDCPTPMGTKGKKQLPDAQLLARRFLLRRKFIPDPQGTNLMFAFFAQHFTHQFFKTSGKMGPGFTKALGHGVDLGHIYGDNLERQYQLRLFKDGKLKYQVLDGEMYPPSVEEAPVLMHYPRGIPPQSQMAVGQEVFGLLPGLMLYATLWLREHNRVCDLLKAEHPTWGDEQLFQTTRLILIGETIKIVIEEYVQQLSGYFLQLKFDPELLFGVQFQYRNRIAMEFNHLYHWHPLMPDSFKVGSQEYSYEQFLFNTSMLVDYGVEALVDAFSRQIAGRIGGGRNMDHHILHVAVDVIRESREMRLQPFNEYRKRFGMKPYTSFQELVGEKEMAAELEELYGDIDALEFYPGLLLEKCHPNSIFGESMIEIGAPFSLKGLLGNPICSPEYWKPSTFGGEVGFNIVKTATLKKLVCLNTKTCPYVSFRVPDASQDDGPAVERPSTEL

CCC/C=C/C/C=C/C=C/C=N/NN=O [TrC, Triacsin C]
senolytic effect [1, 11]: significant senolytic effect | EC50 fold change between senescent and quiescent cells ([2]; single treatment): around 350 fold | EC50 fold change between senescent and quiescent cells ([3]; TrC as single treatment): 9.19 fold | EC50 fold change between senescent and quiescent cells ([3]; increasing TrC combined with 1 μM MK886 and 50 μM Diclofenac): 13.75 fold

CC1(C)Cc2c(-c3ccccc3)c(-c3ccc(Cl)cc3)c(CC(=O)O)n2C1 [Licofelone]
senolytic effect [4]: significant senolytic effect

CC(=O)Oc1ccccc1C(=O)O [ASA, acetylsalicylic acid]
senolytic effect [4]: significant senolytic effect | senolytic effect [5]: significant senolytic effect

CC(C)c1ccc2c(c1)c(SC(C)(C)C)c(CC(C)(C)C(=O)O)n2Cc1ccc(Cl)cc1 [MK886]
senolytic effect ([1]; increasing MK886 combined with 0.5 μM TrC (dual inhibition of ACSL4 and ALOX5)): significant senolytic effect | senolytic effect [1, 11]: not significant | fold change between the EC50 of senescent versus quiescent cells ([6]; MK886 as single treatment): 1.31 fold | EC50 ([6]; MK886 as single treatment): 34.7 µM | fold change between the EC50 of senescent versus quiescent cells [6, 12]: 1.61 fold | fold change between the EC50 of senescent versus quiescent cells ([6]; MK886 combined with 100 μM Diclofenac): 1.88 fold | fold change between the EC50 of senescent versus quiescent cells ([6]; MK886 combined with 200 μM Diclofenac): 1.64 fold | fold change between the EC50 of senescent versus quiescent cells ([6]; MK886 combined with 0.4 mM ASA): 1.46 fold | fold change between the EC50 of senescent versus quiescent cells ([6]; MK886 combined with 0.4 mM ASA and 5 μM Oligomycin A): 4.51 fold | EC50 [6, 13]: 17.3 µM | EC50 ([6]; increasing MK886 combined with 100 μM Diclofenac): 11.2 µM | EC50 ([6]; increasing MK886 combined with 200 μM Diclofenac): 8.39 µM | EC50 ([6]; increasing MK886 combined with 0.4 mM ASA and 5 μM Oligomycin A): 9.9 µM | EC50 [6, 14]: 30.4 µM | intracellular AA levels [7]: increased | EC50 fold change between senescent and quiescent cells ([2]; increasing MK886 combined with 0.1 μM TrC and 25 μM Diclofenac): around 700 fold | EC50 fold change between senescent and quiescent cells ([2]; increasing MK886 combined with 25 μM Diclofenac): 5.11 fold | EC50 fold change between senescent and quiescent cells ([2]; single treatment): 2.66 fold | fold change between the EC50 of senescent versus quiescent cells ([8]; MK886 as single treatment): 1.58 fold | EC50 ([8]; MK886 as single treatment): 26.4 µM | fold change between the EC50 of senescent versus quiescent cells ([8]; MK886 combined with 2 μM Celecoxib): 2.55 fold | fold change between the EC50 of senescent versus quiescent cells [8, 12]: 2.53 fold | fold change between the EC50 of senescent versus quiescent cells ([8]; MK886 combined with 0.4 mM ASA): 1.95 fold | EC50 ([8]; increasing MK886 combined with 2 μM Celecoxib): 17 µM | EC50 [8, 13]: 9 µM | EC50 [8, 14]: 18.8 µM | fold change between the EC50 of senescent versus quiescent cells ([9]; MK886 as single treatment): 1.49 fold | EC50 ([9]; MK886 as single treatment): 34 µM | fold change between the EC50 of senescent versus quiescent cells [9, 12]: 2.52 fold | fold change between the EC50 of senescent versus quiescent cells ([9]; MK886 combined with 0.4 mM ASA): 1.51 fold | fold change between the EC50 of senescent versus quiescent cells ([9]; MK886 combined with 0.4 mM ASA and 2 μM CsA): 2.81 fold | EC50 [9, 13]: 12.4 µM | EC50 ([9]; increasing MK886 combined with 0.4 mM ASA and 2 μM CsA): 14.9 µM | EC50 [9, 14]: 29.6 µM | senolytic effect [5]: significant senolytic effect

CC1(C)CCC(c2ccc(Cl)cc2)=C(CN2CCN(c3ccc(C(=O)NS(=O)(=O)c4ccc(N[C@H](CCN5CCOCC5)CSc5ccccc5)c(S(=O)(=O)C(F)(F)F)c4)cc3)CC2)C1 [Navitoclax]
senolytic effect [1, 11]: no senolytic effect | senolytic effect [4]: significant senolytic effect

CNc1ccc2oc(C[C@H]3O[C@@]4(CC[C@H]3C)O[C@H]([C@H](C)C(=O)c3ccc[nH]3)[C@H](C)C[C@H]4C)nc2c1C(=O)O [A23187]
effect on the senolytic effect of 1 μM TrC and 1 μM MK886 ([10]; 2.5 μM A23187 added, 72 hours): abolishing the senolytic effect

O=C(O)Cc1ccccc1Nc1c(Cl)cccc1Cl [Diclofenac]
EC50 fold change between senescent and quiescent cells ([2]; single treatment): 3.02 fold

O=c1c(O)c(-c2ccc(O)c(O)c2)oc2cc(O)cc(O)c12 [Quercetin]
IC50 (cyclooxygenase): ≥ 100 µM

NC(CO)(CO)CO.O=C(O)CCc1ccc2c(c1)c(CCc1ccccc1)cn2-c1ccc(Oc2ccccc2)cc1 [ASB14780]
effect on the cytotoxic effect of TrC and MK886 on senescent cells [10, 15]: reduced the cytotoxic effect | viability of quiescent cells [10, 15]: only affected to a minor extent

CC(C)=CCC[C@]1(C)[C@@H](CC=C(C)C)C[C@@]2(CC=C(C)C)C(=O)[C@]1(C(=O)C(C)C)C(=O)C(CC=C(C)C)=C2O [hyperforin]
COX-1 inhibition relative to aspirin (COX-1): 3-18 times
